Experimental findings from PMC6917776, “Discovery of a chemical probe for PRDM9” (Nature Communications, 2019) are described below.

For assay [1], the system named is 32 protein, DNA and RNA methyltransferases. Description: Methyltransferase selectivity assay (whole panel). In kind it is biochemical. Particulars: tested at 1 µM and 10 µM of compounds. As for the experimental part:
Selectivity against methyltransferases were determined as described previously. Details of the assays are described in the supplementary methods. […]
were tested at (circle) 1 µM and (triangle) 10 µM of compounds. PRDM9 was the only methyltransferase in this panel of MTs that was inhibited by MRK -740.
Effect of both compounds on PRDM7 is presented in figure 1D in the main text. Each experiment was performed at two concentrations (1 and 10 µM) of compounds and in duplicate (n=2). Source data are provided as a Source Data file .
(1 picture or pasted object on this page, not shown here)
(§1) Methyltransferase selectivity assay1
The effect of chemical probes and negative controls on the methyltransferase activities of protein, DNA and RNA methyltransferases was tested by radiometric assays using 3H-SAM. For proteins such as MLL1 trimeric, MLL3 pentameric, EZH1 (PRC2) pentameric, and EZH2 (PRC2) trimeric complexes, as well as G9a, GLP, SUV39H1, SUV39H2, SUV420H1, SUV420H2, SETD2, SETD8, SETDB1, SETD7, PRMT1, PRMT3, PRMT4, PRMT5/ MEP50 complex, PRMT6, PRMT7, PRMT8, PRMT9, PRDM9, SMYD2, SMYD3, DNMT1, and BCDIN3D the incorporation of a tritium-labeled methyl group into biotinylated substrate was monitored using scintillation proximity assay (SPA). […] The counts per minute (CPM) was measured on a TopCount plate reader. […]

For assay [2], the target named is PRDM9 (Homo sapiens, UniProt Q9NQV7). Description: PRDM9 cellular assay: H3K4me3 of exogenous H3-GFP in HEK293T cells (western blot). In kind it is cell-based. The conditions noted are these: for IC50: H3-GFP and PRDM9-FLAG co-transfected, 20 h of treatment, read-out: IC50, PRDM9-dependent trimethylation of ectopic H3K4. How it is done:
HEK293T cells were co-transfected with H3-GFP and PRDM9-FLAG and treated with compounds at indicated concentrations for 20 h. Mut denotes PRDM9 catalytic mutant (Y357S). […] Cells were treated with compounds for 1 day. Cell number was measured using IncuCyte™ ZOOM live cell imaging device. The results are mean ± sd, n = 3. Source data are provided as a Source Data file.
HEK293T (kind gift from Sam Benchimol, York University), or MCF7 (ATCC® HTB-22™), cells were plated (12 well plates) and next day co-transfected with 0.1 (HEK293T) or 0.2 (MCF7) µg of GFP-tagged histone H3 and with 0.1 (HEK293T) or 0.2 (MCF7) µg of Flag-tagged PRDM9/PRDM9 catalytic mutant (Y357S) and 0.8 or 0.6 µg of empty vector using JetPRIME® transfection reagent, following manufacturer instructions. After 4 h media was removed and cells were treated with compounds for 20 h. Next day, cells were lysed in lysis buffer (20 mM Tris-HCl pH 8, 150 mM NaCl, 1 mM EDTA, 10 mM MgCl2, 0.5% TritonX-100, 12.5 U mL^−1 benzonase (Sigma), complete EDTA-free protease inhibitor cocktail (Roche)). After 2 min incubation at RT, SDS was added to final 1% concentration. Cell lysates were analyzed in western blot for GFP and H3K4me3 levels. All cell lines were mycoplasma negative, as determined by MycoAlert™ Mycoplasma Detection Kit (Lonza).
Total cell lysates were resolved in 4–12% Bis-Tris Protein Gels (Invitrogen) and transferred in for 1.5 h (80 V) onto PVDF membrane (Millipore) in Tris-Glycine transfer buffer containing 20% MeOH and 0.05% SDS. Blots were blocked for 1 h in blocking buffer (5% milk in PBS) and incubated with primary antibodies anti-GFP (1:3000, Clontech # 632381), anti-H3K4me3 (1:1000, Millipore, #04-745), anti-histone H3 (1:2000, #ab10799, Abcam), anti-Flag (1:5000, #F4799, Sigma) in blocking buffer (5% BSA in 0.1% Tween 20 PBS) overnight at 4 °C. After five washes with 0.1% Tween 20 PBS the blots were incubated with goat-anti rabbit (IR800) and donkey anti-mouse (IR 680) antibodies (1:5000) in Odyssey Blocking Buffer (LiCor) for 1 h at RT and washed five times with 0.1% Tween 20 PBS. The signal was read on an Odyssey scanner (LiCor) at 800 nm and 700 nm and analyzed with Image Studio Ver.5.2 software.

The target in assay [3] is T1, DNMT3A/3L (Homo sapiens, UniProt Q9Y6K1).
T1 construct: purchased Structural Genomics Consortium (SGC Toronto) in-house methyltransferase panel
Kind of assay: Methyltransferase selectivity assay (filter-based). Format: biochemical. How it is done:
Selectivity against methyltransferases were determined as described previously. Details of the assays are described in the supplementary methods.
as §1
The effect of chemical probes and negative controls on the methyltransferase activities of protein, DNA and RNA methyltransferases was tested by radiometric assays using 3H-SAM. […]
Briefly, a 10 µL reaction containing 3H- […]
The CPM in the absence of compound or enzyme was defined as 100% activity and background (0%), respectively, for each dataset. […]
For proteins which were tested with nucleosome as substrate such as DOT1L, NSD1, NSD2, NSD3, and ASH1L, or unbiotinylated Poly(2′-deoxyinosinic-2′-deoxycytidylic acid) (Cat# 81349-500UG, Sigma Aldrich) such as DNMT3A/3L, and DNMT3B/3L, a filter-based assay was used. In this assay, a trichloroacetic acid (TCA) protein precipitation protocol was employed. A 10 µL reaction mixture was incubated at 23°C for 1 h, followed by addition of 50 µL of 10% TCA. The mixture was transferred to filter plates (Millipore, Billerica, MA, USA) that were centrifuged at 2000 rpm (Allegra X-15R; Beckman Coulter, Brea, CA, USA) for 2 min. Samples were washed twice with 10% TCA and once with ethanol (180 µL), and centrifuged. After drying, 100 µL MicroScint-O (Perkin Elmer) was added to each well and the plates were centrifuged to remove the liquid. A 70 µL volume of MicroScint-O was added and the CPM was measured with a TopCount plate reader.

Setting [4] is: HEK-293T, 20 h, Figure 6b, replicates, read-out: H3K4me3/GFP - western blot, % control.

Each structure is given as a SMILES string. Where two headings read alike, the source gives them in different places.

Chain of PRDM9 (Q9NQV7 whole entry): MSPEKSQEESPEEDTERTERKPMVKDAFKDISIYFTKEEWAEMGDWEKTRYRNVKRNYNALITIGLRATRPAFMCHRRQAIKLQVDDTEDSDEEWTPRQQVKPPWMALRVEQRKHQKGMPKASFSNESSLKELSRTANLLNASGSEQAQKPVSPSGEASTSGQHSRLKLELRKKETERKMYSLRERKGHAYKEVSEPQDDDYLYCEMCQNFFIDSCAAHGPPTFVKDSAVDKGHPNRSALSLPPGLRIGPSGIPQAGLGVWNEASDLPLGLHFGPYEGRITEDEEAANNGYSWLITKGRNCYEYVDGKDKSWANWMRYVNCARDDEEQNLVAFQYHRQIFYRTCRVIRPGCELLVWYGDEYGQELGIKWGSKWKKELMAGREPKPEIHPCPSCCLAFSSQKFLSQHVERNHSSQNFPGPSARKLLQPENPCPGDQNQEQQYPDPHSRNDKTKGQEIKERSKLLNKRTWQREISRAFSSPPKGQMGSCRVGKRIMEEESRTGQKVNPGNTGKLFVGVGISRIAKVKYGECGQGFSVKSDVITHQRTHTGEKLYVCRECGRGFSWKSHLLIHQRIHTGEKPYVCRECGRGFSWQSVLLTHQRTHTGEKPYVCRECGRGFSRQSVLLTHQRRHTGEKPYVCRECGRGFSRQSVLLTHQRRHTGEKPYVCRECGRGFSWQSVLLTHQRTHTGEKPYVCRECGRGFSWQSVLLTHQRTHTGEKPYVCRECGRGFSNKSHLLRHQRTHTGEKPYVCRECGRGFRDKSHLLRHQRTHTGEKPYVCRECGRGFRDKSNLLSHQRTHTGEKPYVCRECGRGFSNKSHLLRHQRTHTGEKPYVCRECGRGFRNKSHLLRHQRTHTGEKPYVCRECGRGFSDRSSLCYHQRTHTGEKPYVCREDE
T1 sequence (Q9Y6K1 whole entry, looked up): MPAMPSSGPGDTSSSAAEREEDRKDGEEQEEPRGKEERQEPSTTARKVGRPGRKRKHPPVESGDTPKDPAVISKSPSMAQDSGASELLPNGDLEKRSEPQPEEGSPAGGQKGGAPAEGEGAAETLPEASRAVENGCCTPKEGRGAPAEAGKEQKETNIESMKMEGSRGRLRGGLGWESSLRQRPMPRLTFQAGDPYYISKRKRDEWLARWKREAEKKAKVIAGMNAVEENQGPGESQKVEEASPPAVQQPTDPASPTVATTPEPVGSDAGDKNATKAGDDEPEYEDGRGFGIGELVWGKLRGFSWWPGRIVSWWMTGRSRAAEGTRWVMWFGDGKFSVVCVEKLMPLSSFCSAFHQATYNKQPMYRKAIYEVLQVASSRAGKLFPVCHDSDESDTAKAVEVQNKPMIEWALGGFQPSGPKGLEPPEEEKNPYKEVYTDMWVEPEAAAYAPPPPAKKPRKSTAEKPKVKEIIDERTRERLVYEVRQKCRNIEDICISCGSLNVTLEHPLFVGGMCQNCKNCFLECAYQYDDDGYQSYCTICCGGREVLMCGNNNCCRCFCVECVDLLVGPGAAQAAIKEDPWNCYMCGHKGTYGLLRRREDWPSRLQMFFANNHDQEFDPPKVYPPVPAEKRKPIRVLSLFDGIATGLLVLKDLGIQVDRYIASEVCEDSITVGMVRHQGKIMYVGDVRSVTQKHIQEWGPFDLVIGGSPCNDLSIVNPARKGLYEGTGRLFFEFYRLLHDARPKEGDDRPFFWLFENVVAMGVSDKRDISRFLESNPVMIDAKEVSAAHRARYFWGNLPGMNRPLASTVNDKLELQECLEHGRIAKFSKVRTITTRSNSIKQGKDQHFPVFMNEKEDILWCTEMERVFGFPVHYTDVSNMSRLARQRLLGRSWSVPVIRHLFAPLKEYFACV
T1 sequence (Q9UJW3 whole entry partner): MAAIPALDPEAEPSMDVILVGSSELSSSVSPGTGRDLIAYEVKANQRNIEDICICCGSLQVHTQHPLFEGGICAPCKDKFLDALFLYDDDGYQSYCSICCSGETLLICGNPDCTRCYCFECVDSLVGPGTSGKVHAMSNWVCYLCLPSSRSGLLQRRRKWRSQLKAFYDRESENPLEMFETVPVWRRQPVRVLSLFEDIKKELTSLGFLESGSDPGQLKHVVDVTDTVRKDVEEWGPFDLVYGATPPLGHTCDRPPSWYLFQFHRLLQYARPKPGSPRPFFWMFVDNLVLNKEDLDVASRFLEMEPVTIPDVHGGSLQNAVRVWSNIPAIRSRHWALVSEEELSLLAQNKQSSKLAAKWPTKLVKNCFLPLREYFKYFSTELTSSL

Take `COc1cc(OC)cc(-c2noc(N3CCN(C)C4(CCN(c5ccnc(C)c5)CC4)C3)n2)c1` [MRK-740]: in assay [1], the “Methyltransferase selectivity (in words)” value is “selective”. In addition, in assay [2], the IC50 came to 800 ± 100 nM. For the same compound, the remaining activity at 0.123455 µM in assay [2] (HEK-293T, 20 h, 0.123455 µM, Figure 6b, replicates, read-out: H3K4me3/GFP - western blot, % control) was 109%. In assay [2] (HEK-293T, 20 h, 0.370374 µM, Figure 6b, replicates, read-out: H3K4me3/GFP - western blot, % control), the remaining activity at 0.370374 µM came to 89.7%. Further, the remaining activity at 1.11111 µM in assay [2] (HEK-293T, 20 h, 1.11111 µM, Figure 6b, replicates, read-out: H3K4me3/GFP - western blot, % control) amounted to 25.7%. Moreover, in assay [2] (setting [4]), the remaining activity at 3.33334 µM amounted to 11.4%. The remaining activity at 30 µM in assay [2] (HEK-293T, 20 h, 30 µM, Figure 6b, replicates, read-out: H3K4me3/GFP - western blot, % control) worked out at 3.21%. For the same compound, the IC90 in assay [2] (HEK-293T, read-out: IC90, PRDM9-dependent H3K4 trimethylation in cells) was 3000 nM. In addition, in assay [3] (1µM compound, Exp1, Exp2, 1 µM), the Activity % was found to be 107%. Also, the activity at 1 µM in assay [3] (1µM compound, Exp1, Exp2, read-out: Activity %) was found to be 108%. The activity at 10 µM in assay [3] (10µM compound, Exp1, Exp2, read-out: Activity %) amounted to 100%.

`COc1cc(OC)cc(-c2noc(N3CCN(C)C4(CCN(c5ccccc5)CC4)C3)n2)c1` [MRK-740-NC]: the “Methyltransferase selectivity (in words)” value in assay [1] is given as “no effect on activity of any of 33 MTs”. Further, the half-inhibitory concentration (IC50) in assay [2] was > 10000 nM. Besides, the remaining activity at 0.256 µM in assay [2] (HEK-293T, 20 h, 0.256 µM, Figure 6b, replicates, read-out: H3K4me3/GFP - western blot, % control) came to 100%. Also, the remaining activity at 0.64 µM in assay [2] (HEK-293T, 20 h, 0.64 µM, Figure 6b, replicates, read-out: H3K4me3/GFP - western blot, % control) was found to be 89.9%. Moreover, in assay [2] (HEK-293T, 20 h, 1.6 µM, Figure 6b, replicates, read-out: H3K4me3/GFP - western blot, % control), the remaining activity at 1.6 µM is 103%. Besides, the remaining activity at 3.33334 µM in assay [2] (setting [4]) was 113%. The remaining activity at 4 µM in assay [2] (HEK-293T, 20 h, 4 µM, Figure 6b, replicates, read-out: H3K4me3/GFP - western blot, % control) was 111%. The remaining activity at 10 µM in assay [2] (HEK-293T, 20 h, 10 µM, Figure 6b, replicates, read-out: H3K4me3/GFP - western blot, % control) stood at 116%.

As to `COc1cc(OC)cc(-c2noc(N3CCN(C)C4(CCN(c5ccccc5)CC4)C3)n2)c1` [MRK-740 -NC], the activity at 1 µM in assay [3] (1µM compound, Exp1, Exp2) is 100%. In addition, the Activity % in assay [3] (1µM compound, Exp1, Exp2, 1 µM) is reported as 91%; in assay [3] (10µM compound, Exp1, Exp2, 10 µM), 87%. The activity at 10 µM in assay [3] (10µM compound, Exp1, Exp2) was 96%.
